Activity calls are given as the source filed them. The calls are words filed in the database; no cut-off is given here.
Key:
[1] = biological target: T1, C-type lectin domain family 4 member E (Homo sapiens) (UniProt Q9ULY5); assay: Agonist activity at Mincle in human PBMC assessed as increase in TNF-alpha production at 1 to 1000 uM incubated for 18 to 24 hrs by ELISA
T1 sequence (whole entry): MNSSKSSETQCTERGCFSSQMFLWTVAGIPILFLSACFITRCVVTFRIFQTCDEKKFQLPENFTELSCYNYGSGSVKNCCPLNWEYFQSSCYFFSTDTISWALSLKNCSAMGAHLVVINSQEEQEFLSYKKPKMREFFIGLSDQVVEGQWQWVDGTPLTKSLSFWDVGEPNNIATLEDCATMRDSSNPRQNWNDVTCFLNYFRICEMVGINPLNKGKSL

[2] = biological target: T1, C-type lectin domain family 4 member E (Homo sapiens); assay: Agonist activity at Mincle in human PBMC assessed as increase in IL-6 secretion at 0.1 to 100 uM incubated for 18 to 24 hrs by luminex multiplex assay
[3] = biological target: T1, C-type lectin domain family 4 member E (Homo sapiens); assay: Agonist activity at Mincle in human PBMC assessed as increase in IL-1beta secretion at 0.1 to 100 uM incubated for 18 to 24 hrs by luminex multiplex assay
[4] = biological target: T1, C-type lectin domain family 4 member E (Homo sapiens); assay: Agonist activity at Mincle in human PBMC assessed as increase in IL-23 at 0.1 to 100 uM incubated for 18 to 24 hrs by luminex multiplex assay
[5] = biological target: T1, C-type lectin domain family 4 member E (Homo sapiens); assay: Agonist activity at Mincle in human PBMC assessed as increase in TNF-alpha level at 0.1 to 100 uM incubated for 18 to 24 hrs by luminex multiplex assay
[6] = biological target: T1, C-type lectin domain family 4 member E (Homo sapiens); assay: Agonist activity at human Mincle receptor expressed in human HEK cells assessed as NF-kappaB activation incubated for 24 hrs by SEAP reporter gene assay; type: cell-based
[7] = biological target: T2, C-type lectin domain family 4 member E (Mus musculus) (UniProt Q9R0Q8); assay: Agonist activity at mouse Mincle receptor expressed in human HEK cells assessed as NF-kappaB activation incubated for 24 hrs by SEAP reporter gene assay; type: cell-based
T2 sequence (whole entry): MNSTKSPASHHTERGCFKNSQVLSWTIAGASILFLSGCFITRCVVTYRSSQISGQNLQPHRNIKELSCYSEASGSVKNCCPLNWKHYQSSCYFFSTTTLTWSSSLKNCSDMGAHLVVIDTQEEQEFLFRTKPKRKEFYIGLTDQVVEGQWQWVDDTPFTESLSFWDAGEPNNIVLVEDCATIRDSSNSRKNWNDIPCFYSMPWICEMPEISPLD

Mus musculus [8] = assay: Immuno-adjuvant activity in M72-immunized BALB/c mouse assessed as potentiation of antibody response to M72 by measuring serum anti-M72 IgG2a level at 10 nmol, im administered immediately and 14 and measured after 14 days by ELISA; type: functional, organism-based
Mus musculus [9] = assay: Immuno-adjuvant activity in M72-immunized BALB/c mouse assessed as potentiation of antibody response to M72 by measuring CD4+ IL-17A T-cells at 2 to 50 nmol, im administered immediately and 14 and measured after 5 days by immuno staining based flow cytometry; type: functional, organism-based
Mus musculus [10] = assay: Immuno-adjuvant activity in B42-immunized BALB/c mouse assessed as potentiation of antibody response to B42 by measuring CD4+ IL-17A T-cells at 2 to 50 nmol, im administered immediately and 14 and measured after 5 days by immuno staining based flow cytometry; type: functional, organism-based
Mus musculus [11] = assay: Immuno-adjuvant activity in M72-immunized BALB/c mouse assessed as potentiation of antibody response to M72 by measuring IFNgamma at 2 to 50 nmol, im administered immediately and 14 and measured after 5 days by immuno staining based flow cytometry; type: functional, organism-based
Mus musculus [12] = assay: Immuno-adjuvant activity in M72-immunized BALB/c mouse assessed as potentiation of antibody response to M72 by measuring IL-5 at 2 to 50 nmol, im administered immediately and 14 and measured after 5 days by immuno staining based flow cytometry; type: functional, organism-based
Mus musculus [13] = assay: Immuno-adjuvant activity in M72-immunized BALB/c mouse assessed as potentiation of antibody response to M72 by measuring serum anti-M72 IgG level at 10 nmol, im administered immediately and day 14 and measured after 14 days by ELISA; type: functional, organism-based
Mus musculus [14] = assay: Immuno-adjuvant activity in M72-immunized BALB/c mouse assessed as potentiation of antibody response to M72 by measuring serum anti-M72 IgG1 level at 10 nmol, im administered immediately and 14 and measured after 14 days by ELISA; type: functional, organism-based
[15] = biological target: T2, C-type lectin domain family 4 member E (Mus musculus); assay: Agonist activity at Mincle in mouse RAW264.7 cells assessed as TNF-alpha secretion at 0.1 to 100 uM incubated for 18 to 24 hrs by ELISA; type: cell-based
[16] = biological target: T2, C-type lectin domain family 4 member E (Mus musculus); assay: Agonist activity at Mincle in mouse RAW264.7 cells assessed as IL-6 production at 0.1 to 100 uM incubated for 18 to 24 hrs by ELISA; type: cell-based
[17] = biological target: T1, C-type lectin domain family 4 member E (Homo sapiens); assay: Agonist activity at Mincle in human PBMC assessed as TNF-alpha secretion at 0.1 to 100 uM incubated for 18 to 24 hrs by ELISA

Structure (SMILES) | Activity [1] | Activity [2] | Activity [3] | Activity [4] | Activity [5] | Activity [15] | Activity [16] | Activity [17] | also measured
COc1ccc(/C=C/C(=O)OC[C@H]2O[C@H](O[C@H]3O[C@H](COC(=O)/C=C/c4ccc(OC)c(OC)c4)[C@@H](O)[C@H](O)[C@H]3O)[C@H](O)[C@@H](O)[C@@H]2O)cc1OC | Active | Active | Active | Active | Active |  |  |  | 
CCCCCCCCCCCCCCCCCCCCCC(=O)OC[C@H]1O[C@H](O[C@H]2O[C@H](COC(=O)CCCCCCCCCCCCCCCCCCCCC)[C@@H](O)[C@H](O)[C@H]2O)[C@H](O)[C@@H](O)[C@@H]1O |  |  |  |  |  |  |  |  | Activity [6]: inactive; Activity [7]: inactive; Activity (Mus musculus [8]): Active; Activity (Mus musculus [9]): Active; Activity (Mus musculus [10]): Active; Activity (Mus musculus [11]): inactive; Activity (Mus musculus [12]): inactive
CCCCCCCCCCCCCCCCCCCCCCC(C(=O)OC[C@H]1O[C@H](O[C@H]2O[C@H](COC(=O)C(CCCCCCCCCCCCCCCCCCCCCC)C(O)CCCCCCCCCCCCCCCCCC3CC3CCCCCCCCCCCCCCC3CC3CCCCCCCCCCCCCCCCCC)[C@@H](O)[C@H](O)[C@H]2O)[C@H](O)[C@@H](O)[C@@H]1O)C(O)CCCCCCCCCCCCCCCCCC1CC1CCCCCCCCCCCCCCC1CC1CCCCCCCCCCCCCCCCCC (some centres not stated) |  |  |  |  |  |  |  |  | Activity [6]: inactive; Activity [7]: inactive
COc1cc(/C=C/C(=O)OC[C@H]2O[C@H](O[C@H]3O[C@H](COC(=O)/C=C/c4cc(OC)c(OC)c(OC)c4)[C@@H](O)[C@H](O)[C@H]3O)[C@H](O)[C@@H](O)[C@@H]2O)cc(OC)c1OC | Active | Active | Active | Active | Active |  |  |  | 
COc1cc(C)c(C(=O)OC[C@H]2O[C@H](O[C@H]3O[C@H](COC(=O)c4c(C)cc(OC)cc4OC)[C@@H](O)[C@H](O)[C@H]3O)[C@H](O)[C@@H](O)[C@@H]2O)c(OC)c1 | Active | Active | Active | Active | Active |  |  |  | 
CCCCCCCC(CCCCCCC)C(=O)OC[C@H]1O[C@H](O[C@H]2O[C@H](COC(=O)C(CCCCCCC)CCCCCCC)[C@@H](O)[C@H](O)[C@H]2O)[C@H](O)[C@@H](O)[C@@H]1O |  |  |  |  |  |  |  |  | Activity (Mus musculus [13]): Active; Activity (Mus musculus [14]): Active; Activity (Mus musculus [8]): Active
CC(C)(C)c1cc(C(=O)OC[C@H]2O[C@H](O[C@H]3O[C@H](COC(=O)c4cc(C(C)(C)C)cc(C(C)(C)C)c4)[C@@H](O)[C@H](O)[C@H]3O)[C@H](O)[C@@H](O)[C@@H]2O)cc(C(C)(C)C)c1 |  |  |  |  |  | Active | inactive | Active | 
CC(C)(C)c1cc(C(C)(C)C)c(O)c(C(=O)OC[C@H]2O[C@H](O[C@H]3O[C@H](COC(=O)c4c(O)c(C(C)(C)C)cc(C(C)(C)C)c4O)[C@@H](O)[C@H](O)[C@H]3O)[C@H](O)[C@@H](O)[C@@H]2O)c1O |  |  |  |  |  | Active | inactive | Active | 
CC(C)(C)c1ccc(O)c(C(=O)OC[C@H]2O[C@H](O[C@H]3O[C@H](COC(=O)c4cc(C(C)(C)C)ccc4O)[C@@H](O)[C@H](O)[C@H]3O)[C@H](O)[C@@H](O)[C@@H]2O)c1 |  |  |  |  |  | Active | inactive | Active | 
CC(C)(C)c1cc(C(=O)OC[C@H]2O[C@H](O[C@H]3O[C@H](COC(=O)c4cc(C(C)(C)C)cc(C(C)(C)C)c4O)[C@@H](O)[C@H](O)[C@H]3O)[C@H](O)[C@@H](O)[C@@H]2O)c(O)c(C(C)(C)C)c1 | Active | Active | Active | Active | Active |  |  |  | Activity [6]: Dose-dependent effect; Activity [7]: Dose-dependent effect; Activity (Mus musculus [13]): inactive; Activity (Mus musculus [14]): inactive; Activity (Mus musculus [8]): Active; Activity (Mus musculus [9]): Active; Activity (Mus musculus [11]): inactive; Activity (Mus musculus [12]): inactive
CC(C)(C)c1cc(C(=O)OC[C@H]2O[C@H](O[C@H]3O[C@H](COC(=O)c4cc(C(C)(C)C)c(O)c(C(C)(C)C)c4)[C@@H](O)[C@H](O)[C@H]3O)[C@H](O)[C@@H](O)[C@@H]2O)cc(C(C)(C)C)c1O |  |  |  |  |  | Active | inactive | Active | 
CCOc1cc(OCC)cc(C(=O)OC[C@H]2O[C@H](O[C@H]3O[C@H](COC(=O)c4cc(OCC)cc(OCC)c4)[C@@H](O)[C@H](O)[C@H]3O)[C@H](O)[C@@H](O)[C@@H]2O)c1 | Active | Active | Active | Active | Active |  |  |  | 
